ChEMBL document CHEMBL1201862, “PubChem BioAssay data set” (2004)
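Interpolation was linear, between the two tested concentrations surrounding the appropriate level; five concentrations were tested over 48 hours in 96-well plates. GI50: concentration for 50% inhibition of growth.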 Calls of active or inactive are those of the source. No stated cut-off is given here; in the data, active = GI50 up to about 1.1 µM and inactive = higher.

Columns and labels:
Experiment in all cases: NCI tumour cell line growth inhibition, 48 h
ACHN = tested on: ACHN
NCI-H460 = tested on: NCI-H460
U-251 = tested on: U-251
SR = tested on: SR
EKVX = tested on: EKVX
786-0 = tested on: 786-0
HCT-15 = tested on: HCT-15
OVCAR-5 = tested on: OVCAR-5
HCT-116 = tested on: HCT-116
SF-268 = tested on: SF-268
UO-31 = tested on: UO-31
CCRF-CEM = tested on: CCRF-CEM
SK-MEL-2 = tested on: SK-MEL-2
OVCAR-3 = tested on: OVCAR-3
KM12 = tested on: KM12
NCI-H226 = tested on: NCI-H226
SNB-75 = tested on: SNB-75
OVCAR-8 = tested on: OVCAR-8
IGROV-1 = tested on: IGROV-1

| SMILES | GI50 (ACHN) | GI50 (NCI-H460) | GI50 (U-251) | GI50 (SR) | GI50 (EKVX) | GI50 (786-0) | GI50 (HCT-15) [µM] | GI50 (OVCAR-5) | GI50 (HCT-116) | GI50 (SF-268) | GI50 (UO-31) | GI50 (CCRF-CEM) | GI50 (SK-MEL-2) | GI50 (OVCAR-3) | GI50 (KM12) | GI50 (NCI-H226) | GI50 (SNB-75) | GI50 (OVCAR-8) | GI50 (IGROV-1) |
| --- | --- | --- | --- | --- | --- | --- | --- | --- | --- | --- | --- | --- | --- | --- | --- | --- | --- | --- | --- |
| COC(=O)C(=O)C(C(=O)C(=O)Nc1ccc([N+](=O)[O-])cc1C#N)c1nc2ccc([N+](=O)[O-])cc2nc1O (centres undefined) | > 100 µM (inactive) | > 100 µM (inactive) | > 100 µM (inactive) | 96.8 µM (inactive) | 35.6 µM (inactive) | > 100 µM (inactive) | > 100 | > 100 µM (inactive) | > 100 µM (inactive) | > 100 µM (inactive) | > 100 µM (inactive) | > 100 µM (inactive) | > 100 µM (inactive) | > 100 µM (inactive) | > 100 µM (inactive) | 57.5 µM (inactive) | > 100 µM (inactive) | > 100 µM (inactive) | – |
| Nc1nc(-c2ccco2)cc(-c2ccc(CO)o2)n1 | > 100 µM (inactive) | > 100 µM (inactive) | – | > 100 µM (inactive) | > 100 µM (inactive) | > 100 µM (inactive) | > 100 | > 100 µM (inactive) | > 100 µM (inactive) | > 100 µM (inactive) | 60.3 µM (inactive) | 76.4 µM (inactive) | > 100 µM (inactive) | > 100 µM (inactive) | > 100 µM (inactive) | 54.3 µM (inactive) | 72.9 µM (inactive) | > 100 µM (inactive) | > 100 µM (inactive) |
| CC12C/C(=C\c3ccccc3)C(=O)C3C1CCCC32 | > 100 µM (inactive) | > 100 µM (inactive) | 61.4 µM (inactive) | 36.8 µM (inactive) | – | 95.9 µM (inactive) | > 100 | > 100 µM (inactive) | 67.8 µM (inactive) | > 100 µM (inactive) | > 100 µM (inactive) | 33.3 µM (inactive) | > 100 µM (inactive) | 74.6 µM (inactive) | 55.1 µM (inactive) | > 100 µM (inactive) | 92.9 µM (inactive) | > 100 µM (inactive) | > 100 µM (inactive) |
| O=C(CC1(O)C(=O)Nc2c(Cl)cc(Cl)cc21)c1cccc2ccccc12 (centres undefined) | 17.1 µM (inactive) | 16.6 µM (inactive) | 15.5 µM (inactive) | 16.9 µM (inactive) | 16 µM (inactive) | 15.8 µM (inactive) | 16.5 | 22.4 µM (inactive) | 15.2 µM (inactive) | 21.4 µM (inactive) | – | 17.8 µM (inactive) | 17.7 µM (inactive) | 16.1 µM (inactive) | 16 µM (inactive) | 16.5 µM (inactive) | 18.2 µM (inactive) | 18.1 µM (inactive) | 18.6 µM (inactive) |
| COc1ccc(/N=C(/[N-]n2c(=O)c(C)nn(C)c2=S)N(c2ccc(OC)cc2)c2n[n+]3c(=O)c(C)nn(C)c3s2)cc1 | > 100 µM (inactive) | > 100 µM (inactive) | > 100 µM (inactive) | > 100 µM (inactive) | > 100 µM (inactive) | > 100 µM (inactive) | > 100 | > 100 µM (inactive) | > 100 µM (inactive) | > 100 µM (inactive) | – | > 100 µM (inactive) | – | – | > 100 µM (inactive) | > 100 µM (inactive) | > 100 µM (inactive) | > 100 µM (inactive) | > 100 µM (inactive) |
| Cc1cc(NS(=O)(=O)c2ccc(Nc3c4ccccc4nc4c(C(=O)N5CCN(CCO)CC5)cccc34)cc2)no1 | > 100 µM (inactive) | > 100 µM (inactive) | > 100 µM (inactive) | 66.5 µM (inactive) | > 100 µM (inactive) | > 100 µM (inactive) | > 100 | > 100 µM (inactive) | > 100 µM (inactive) | > 100 µM (inactive) | > 100 µM (inactive) | 43.9 µM (inactive) | > 100 µM (inactive) | > 100 µM (inactive) | > 100 µM (inactive) | > 100 µM (inactive) | > 100 µM (inactive) | > 100 µM (inactive) | > 100 µM (inactive) |
| COc1ccc(C)cc(O)c1=O | 22.8 µM (inactive) | 17.7 µM (inactive) | 42.8 µM (inactive) | 5.28 µM (inactive) | 38.8 µM (inactive) | 10.5 µM (inactive) | > 100 | 68.4 µM (inactive) | 33.7 µM (inactive) | 28.6 µM (inactive) | 27.4 µM (inactive) | 10.7 µM (inactive) | 94.8 µM (inactive) | 31.6 µM (inactive) | > 100 µM (inactive) | > 100 µM (inactive) | > 100 µM (inactive) | – | 39.9 µM (inactive) |
| O=C(C=C1SCCS1)/C=C\c1ccc(Cl)cc1 | – | – | – | 85.7 µM (inactive) | > 100 µM (inactive) | > 100 µM (inactive) | – | – | > 100 µM (inactive) | > 100 µM (inactive) | > 100 µM (inactive) | 51.3 µM (inactive) | > 100 µM (inactive) | > 100 µM (inactive) | 87.1 µM (inactive) | 83.2 µM (inactive) | > 100 µM (inactive) | > 100 µM (inactive) | > 100 µM (inactive) |
